In patent publication US11542259B2, “Compounds for the treatment of kinase-dependent disorders” (Exelixis, Inc., priority 2018, dated 2023):

Assays:
Assay type in all cases: cell-based
Met = Met (Homo sapiens (Human), UniProt P08581); assay: Met autophosphorylation ELISA in PC-3 cells; conditions: cellular, HGF stimulated, read-out: c-Met IC50
Experimental: PC-3 prostate cancer cells (ATCC #CRL-1435) were seeded at 4×10^4 cells/well onto 24-well plates (Greiner #662165), in DMEM (Thermo Fisher #11995-040) containing 10% FBS (Thermo Fisher #26140-079), 1% MEM NEAA (Thermo Fisher #11140-050), 1% GlutaMax (Thermo Fisher #35050-061), and 1% Penicillin Streptomycin (Thermo Fisher #15140-122). PC-3 cells were incubated at 37° C., 5% CO2 for 24 h and then starved for 3 h in serum-free medium. Test compounds were serially diluted to produce an 8-point dose curve in fresh serum-free medium to a final concentration of 0.3% DMSO (vehicle) and added to the cells and incubated for 1 h. Cells were then stimulated with 100 ng/mL recombinant human HGF (R&D Systems #294-HG-250) for 10 min, washed with cold PBS and immediately lysed with 130 μL of cold 1× lysis buffer [20 mM Tris, 137 mM sodium chloride, 2 mM EDTA, 10% glycerol, 1% NP-40 alternative, 1 mM activated sodium orthovanadate, 1 mM PefaBloc SC (Sigma-Aldrich #11429868001), protease/phosphatase inhibitor tablet (Thermo Fisher #A32959)]. Lysates were clarified by centrifugation and 100 μL/well added into the PathScan phospho-Met (panTyr) Sandwich ELISA (Cell Signaling Technology #7333). Assay was performed according to manufacturer's instructions. Positive control wells (100% activity) contained HGF-stimulated, DMSO-treated cell lysates. Negative control wells (0% activity) contained HGF-stimulated, reference inhibitor-treated cell lysates. IC50 values were calculated by nonlinear regression analysis using a 4-parameter logistic curve fit in ActivityBase XE (IDBS).

KDR = KDR (Homo sapiens (Human), UniProt P35968); assay: KDR autophosphorylation ELISA in HUVEC cells; conditions: cellular, VEGF165 stimulated
Chain of KDR (P35968 20-1356): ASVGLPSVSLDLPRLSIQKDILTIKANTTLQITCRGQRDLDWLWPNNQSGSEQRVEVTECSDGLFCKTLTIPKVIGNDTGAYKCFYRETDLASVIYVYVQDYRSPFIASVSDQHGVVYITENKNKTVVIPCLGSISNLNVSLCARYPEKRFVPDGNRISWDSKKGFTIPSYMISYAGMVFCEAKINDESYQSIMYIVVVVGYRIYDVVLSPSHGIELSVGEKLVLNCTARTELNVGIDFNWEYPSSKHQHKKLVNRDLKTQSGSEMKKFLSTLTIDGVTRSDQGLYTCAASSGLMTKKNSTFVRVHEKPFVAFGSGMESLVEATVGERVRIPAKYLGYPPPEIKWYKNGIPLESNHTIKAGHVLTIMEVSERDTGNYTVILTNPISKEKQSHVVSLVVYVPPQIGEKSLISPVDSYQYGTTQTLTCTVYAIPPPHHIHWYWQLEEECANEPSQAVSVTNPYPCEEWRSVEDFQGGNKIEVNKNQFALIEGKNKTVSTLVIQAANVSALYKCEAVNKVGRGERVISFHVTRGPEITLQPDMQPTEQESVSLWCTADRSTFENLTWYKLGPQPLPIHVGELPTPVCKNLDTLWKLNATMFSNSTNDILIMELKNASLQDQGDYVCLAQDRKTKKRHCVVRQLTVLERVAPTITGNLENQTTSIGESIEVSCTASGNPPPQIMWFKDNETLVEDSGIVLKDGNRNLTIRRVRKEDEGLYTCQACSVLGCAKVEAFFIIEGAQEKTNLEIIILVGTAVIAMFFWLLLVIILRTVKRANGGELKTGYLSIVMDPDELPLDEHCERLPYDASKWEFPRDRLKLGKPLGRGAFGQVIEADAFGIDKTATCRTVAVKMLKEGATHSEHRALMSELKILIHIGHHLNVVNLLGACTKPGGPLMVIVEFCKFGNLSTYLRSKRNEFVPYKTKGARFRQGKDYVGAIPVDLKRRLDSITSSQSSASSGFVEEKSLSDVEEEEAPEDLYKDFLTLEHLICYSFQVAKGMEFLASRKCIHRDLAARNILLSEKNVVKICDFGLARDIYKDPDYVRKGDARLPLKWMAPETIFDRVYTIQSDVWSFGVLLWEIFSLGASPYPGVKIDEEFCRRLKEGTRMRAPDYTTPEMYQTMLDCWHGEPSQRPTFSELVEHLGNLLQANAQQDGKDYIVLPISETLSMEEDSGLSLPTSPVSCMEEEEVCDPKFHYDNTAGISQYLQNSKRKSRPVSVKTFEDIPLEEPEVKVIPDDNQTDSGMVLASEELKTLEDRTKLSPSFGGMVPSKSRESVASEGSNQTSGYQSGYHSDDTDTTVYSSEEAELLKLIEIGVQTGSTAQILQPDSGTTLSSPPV
Experimental: Human umbilical vein endothelial cells or HUVEC (Lonza #C2519A) were seeded at 2×10^4 cells/well onto 96-well plates (Corning #3904), in EGM-2 growth medium (Lonza #CC-3162) containing 1% Penicillin Streptomycin (Thermo Fisher #15140-122). HUVEC cells were incubated at 37° C., 5% CO2 for 24 h and then starved for 24 h in serum-free EBM-2 basal medium (Lonza #CC-3156) containing 1% Penicillin Streptomycin. Test compounds were serially diluted to produce an 8-point dose curve in fresh serum-free medium to a final concentration of 0.3% DMSO (vehicle) and added to the cells and incubated for 1 h. Cells were then stimulated with 100 ng/mL recombinant human VEGF165 (R&D Systems #293-VE-500) for 5 min, washed with cold PBS, and immediately lysed with 130 μL of cold 1× lysis buffer [20 mM Tris, 137 mM sodium chloride, 2 mM EDTA, 10% glycerol, 1% NP-40 alternative, 1 mM activated sodium orthovanadate, 1 mM PefaBloc SC (Sigma-Aldrich #11429868001), protease/phosphatase inhibitor tablet (Thermo Fisher #A32959)]. Lysates were collected and 100 μL/well added into the human phospho-KDR DuoSet IC ELISA (R&D Systems #DYC1766-2). Assay was performed according to manufacturer's instructions and sample phospho-KDR concentrations were extrapolated using human phospho-KDR control (R&D Systems #841421) as a standard. Positive control wells (100% activity) contained VEGF165-stimulated, DMSO-treated cell lysates. Negative control wells (0% activity) contained non-stimulated cell lysates. IC50 values were calculated by nonlinear regression analysis using a 4-parameter logistic curve fit in ActivityBase XE (IDBS).

AXL = AXL (Homo sapiens (Human), UniProt P30530); assay: AXL autophosphorylation ELISA in A-172 cells; conditions: cellular, Gas6 stimulated
Chain of AXL (P30530 26-894): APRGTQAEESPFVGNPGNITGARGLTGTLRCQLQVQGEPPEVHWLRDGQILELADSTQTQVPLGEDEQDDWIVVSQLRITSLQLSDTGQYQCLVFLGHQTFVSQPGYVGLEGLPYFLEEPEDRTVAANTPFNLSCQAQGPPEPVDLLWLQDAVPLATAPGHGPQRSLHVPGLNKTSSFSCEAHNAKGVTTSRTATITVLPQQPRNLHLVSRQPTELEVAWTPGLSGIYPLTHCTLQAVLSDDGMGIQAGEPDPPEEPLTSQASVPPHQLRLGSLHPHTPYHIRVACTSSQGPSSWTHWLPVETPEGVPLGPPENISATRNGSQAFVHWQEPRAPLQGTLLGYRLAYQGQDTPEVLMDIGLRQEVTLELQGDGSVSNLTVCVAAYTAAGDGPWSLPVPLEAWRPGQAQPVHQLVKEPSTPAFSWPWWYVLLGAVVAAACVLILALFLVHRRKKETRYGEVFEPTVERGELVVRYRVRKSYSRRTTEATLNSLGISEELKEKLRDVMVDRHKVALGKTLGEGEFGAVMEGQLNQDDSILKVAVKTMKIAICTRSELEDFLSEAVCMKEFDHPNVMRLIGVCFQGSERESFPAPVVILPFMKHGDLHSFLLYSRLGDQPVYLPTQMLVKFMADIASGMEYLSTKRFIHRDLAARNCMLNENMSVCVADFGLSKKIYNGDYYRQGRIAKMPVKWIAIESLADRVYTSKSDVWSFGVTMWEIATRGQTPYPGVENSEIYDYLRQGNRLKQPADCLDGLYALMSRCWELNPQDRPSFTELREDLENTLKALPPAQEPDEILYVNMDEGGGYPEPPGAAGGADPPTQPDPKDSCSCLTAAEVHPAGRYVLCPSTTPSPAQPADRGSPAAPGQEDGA
Experimental: A-172 glioblastoma cells (ATCC #CRL-1620) were seeded at 2.5×10^5 cells/well onto 24-well plates (Greiner #662165), in DMEM (Thermo Fisher #11995-040) containing 10% FBS (Thermo Fisher #26140-079), 1% MEM NEAA (Thermo Fisher #11140-050), 1% GlutaMax (Thermo Fisher #35050-061) and 1% Penicillin Streptomycin (Thermo Fisher #15140-122). A-172 cells were incubated at 37° C., 5% CO2 for 24 h and then starved for 24 h in serum-free medium. Test compounds were serially diluted to produce an 8-point dose curve in fresh serum-free medium to a final concentration of 0.3% DMSO (vehicle) and added to the cells and incubated for 1 h. Cells were then stimulated with 1 μg/mL recombinant human Gas6 (R&D Systems #885-GSB-500) for 15 min, washed with cold PBS and immediately lysed with 150 μL of cold 1× lysis buffer [20 mM Tris, 137 mM sodium chloride, 2 mM EDTA, 10% glycerol, 1% NP-40 alternative, 1 mM activated sodium orthovanadate, 1 mM PefaBloc SC (Sigma-Aldrich #11429868001), protease/phosphatase inhibitor tablet (Thermo Fisher #A32959)]. Lysates were collected and 100 μL/well added into the human phospho-AXL DuoSet IC ELISA (R&D Systems #DYC2228-2). Assay was performed according to manufacturer's instructions and sample phospho-AXL concentrations were extrapolated using human phospho-AXL control (R&D Systems #841645) as a standard. Positive control wells (100% activity) contained Gash-stimulated, DMSO-treated cell lysates. Negative control wells (0% activity) contained Gash-stimulated, reference inhibitor-treated cell lysates. IC50 values were calculated by nonlinear regression analysis using a 4-parameter logistic curve fit in ActivityBase XE (IDBS).

Chain of Met (P08581 25-1390): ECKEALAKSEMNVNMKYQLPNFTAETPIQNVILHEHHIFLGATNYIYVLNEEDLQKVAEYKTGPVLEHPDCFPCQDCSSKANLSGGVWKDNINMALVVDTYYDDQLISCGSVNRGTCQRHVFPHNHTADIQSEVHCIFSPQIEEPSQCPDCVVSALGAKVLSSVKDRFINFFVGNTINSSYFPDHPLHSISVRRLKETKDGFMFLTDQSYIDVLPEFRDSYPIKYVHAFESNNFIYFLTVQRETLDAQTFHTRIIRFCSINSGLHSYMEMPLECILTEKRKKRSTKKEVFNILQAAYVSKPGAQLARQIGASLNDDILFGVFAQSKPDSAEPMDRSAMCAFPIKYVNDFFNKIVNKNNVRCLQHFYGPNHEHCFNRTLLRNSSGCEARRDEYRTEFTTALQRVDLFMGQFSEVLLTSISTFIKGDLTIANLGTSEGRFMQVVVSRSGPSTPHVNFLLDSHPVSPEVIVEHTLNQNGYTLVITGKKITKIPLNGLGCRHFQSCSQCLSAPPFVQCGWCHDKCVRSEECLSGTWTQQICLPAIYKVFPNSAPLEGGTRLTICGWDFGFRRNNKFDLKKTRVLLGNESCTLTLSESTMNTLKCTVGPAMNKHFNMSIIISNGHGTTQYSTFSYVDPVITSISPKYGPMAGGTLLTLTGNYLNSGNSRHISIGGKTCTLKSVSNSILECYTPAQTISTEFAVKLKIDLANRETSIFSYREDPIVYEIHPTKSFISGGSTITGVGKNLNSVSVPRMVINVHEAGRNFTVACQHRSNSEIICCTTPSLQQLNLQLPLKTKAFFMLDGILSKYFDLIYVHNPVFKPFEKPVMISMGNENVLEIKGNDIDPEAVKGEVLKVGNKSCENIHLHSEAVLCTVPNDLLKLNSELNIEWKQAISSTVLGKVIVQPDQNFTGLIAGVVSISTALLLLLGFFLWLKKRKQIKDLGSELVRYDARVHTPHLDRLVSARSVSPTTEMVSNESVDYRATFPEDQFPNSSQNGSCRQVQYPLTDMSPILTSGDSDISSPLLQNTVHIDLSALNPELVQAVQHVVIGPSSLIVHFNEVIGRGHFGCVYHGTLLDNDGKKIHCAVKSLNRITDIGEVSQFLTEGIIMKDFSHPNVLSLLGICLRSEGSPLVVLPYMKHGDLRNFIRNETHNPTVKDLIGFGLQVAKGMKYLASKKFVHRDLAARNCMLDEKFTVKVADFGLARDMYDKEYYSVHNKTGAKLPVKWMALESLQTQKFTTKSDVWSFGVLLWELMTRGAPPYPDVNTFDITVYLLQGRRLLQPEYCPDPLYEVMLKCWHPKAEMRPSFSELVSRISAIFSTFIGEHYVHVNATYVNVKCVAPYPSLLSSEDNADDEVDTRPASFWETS

Compound	IC50 (Met)	IC50 (KDR)	IC50 (AXL)
CO/N=C/c1cc2c(Oc3ccc(NC(=O)C4(C(=O)Nc5ccc(F)cc5)CC4)cc3)ccnc2cc1OC [Compound 193, 1-N′-(4-Fluorophenyl)-1-N-[4-[7-methoxy-6-[(E)-methoxyiminomethyl]quinolin-4-yl]oxyphenyl]cyclopropane-1,1-dicarboxamide]	100 to 300 nM	100 to 300 nM	10 to 100 nM
NS(=O)(=O)c1ccc2nccc(Oc3ccc(NC(=O)C4(C(=O)Nc5ccc(F)cc5)CC4)cc3)c2c1 [Compound 209, 1-N′-(4-Fluorophenyl)-1-N-[4-(6-sulfamoylquinolin-4-yl)oxyphenyl]cyclopropane-1,1-dicarboxamide]	100 to 300 nM	10 to 100 nM	100 to 300 nM
CO/N=C(\C)c1ccc2c(Oc3ccc(NC(=O)C4(C(=O)Nc5ccc(F)cc5)CC4)cc3)ccnc2c1 [Compound 256, 1-N′-(4-Fluorophenyl)-1-N-[4-[7-[(E)-N-methoxy-C-methylcarbonimidoyl]quinolin-4-yl]oxyphenyl]cyclopropane-1,1-dicarboxamide]	100 to 300 nM	100 to 300 nM	100 to 300 nM
CNC(=O)c1cc2c(Oc3ccc(NC(=O)C4(C(=O)Nc5c(C)cc(F)cc5C)CC4)cc3F)ccnc2cc1OC [Compound 267, 1-N′-(4-Fluoro-2,6-dimethylphenyl)-1-N-[3-fluoro-4-[7-methoxy-6-(methylcarbamoyl)quinolin-4-yl]oxyphenyl]cyclopropane-1,1-dicarboxamide]	100 to 300 nM	100 to 300 nM	10 to 100 nM
CNC(=O)Nc1ccc2c(Oc3ccc(NC(=O)C4(C(=O)Nc5ccc(F)cc5)CC4)cc3)ccnc2c1 [Compound 281, 1-N′-(4-Fluorophenyl)-1-N-[4-[7-(methylcarbamoylamino)quinolin-4-yl]oxyphenyl]cyclopropane-1,1-dicarboxamide]	10 to 100 nM	100 to 300 nM	100 to 300 nM

Next, values leading:

IC50 (Met)	IC50 (KDR)	IC50 (AXL)	Compound
10 to 100 nM	10 to 100 nM	10 to 100 nM	O=C(Nc1ccc(F)cc1)C1(C(=O)Nc2ccc(Oc3ccnc4ccc(-c5ccn[nH]5)cc34)cc2)CC1 [Compound 204, 1-N′-(4-Fluorophenyl)-1-N-[4-[6-(1H-pyrazol-5-yl)quinolin-4-yl]oxyphenyl]cyclopropane-1,1-dicarboxamide]
100 to 300 nM	100 to 300 nM	10 to 100 nM	O=C(Nc1ccc(F)cc1)C1(C(=O)Nc2ccc(Oc3ccnc4ccc(-c5nnco5)cc34)cc2)CC1 [Compound 221, 1-N′-(4-Fluorophenyl)-1-N-[4-[6-(1,3,4-oxadiazol-2-yl)quinolin-4-yl]oxyphenyl]cyclopropane-1,1-dicarboxamide]
100 to 300 nM	> 300 nM	100 to 300 nM	NS(=O)(=O)c1ccc2c(Oc3ccc(NC(=O)C4(C(=O)Nc5ccc(F)cc5)CC4)cc3)ccnc2c1 [Compound 254, 1-N′-(4-Fluorophenyl)-1-N-[4-(7-sulfamoylquinolin-4-yl)oxyphenyl]cyclopropane-1,1-dicarboxamide]
100 to 300 nM	> 300 nM	> 300 nM	CC(=O)c1ccc2c(Oc3ccc(NC(=O)C4(C(=O)Nc5ccc(F)cc5)CC4)cc3)ccnc2c1 [Compound 255, 1-N-[4-(7-Acetylquinolin-4-yl)oxyphenyl]-1-N′-(4-fluorophenyl)cyclopropane-1,1-dicarboxamide]
> 300 nM	> 300 nM	> 300 nM	CNC(=O)c1cc2c(Oc3ccc(NC(=O)C4(C(=O)N(C)c5ccc(F)cc5)CC4)cc3F)ccnc2cc1OC [Compound 262, 1-N-[3-Fluoro-4-[7-methoxy-6-(methylcarbamoyl)quinolin-4-yl]oxyphenyl]-1-N′-(4-fluorophenyl)-1-N′-methylcyclopropane-1,1-dicarboxamide]
> 300 nM	> 300 nM	> 300 nM	CNC(=O)c1cc2c(Oc3ccc(NC(=O)C4(C(=O)N(C)c5ccc(F)cc5)CC4)cc3)ccnc2cc1OC [Compound 263, 1-N′-(4-Fluorophenyl)-1-N-[4-[7-methoxy-6-(methylcarbamoyl)quinolin-4-yl]oxyphenyl]-1-N′-methylcyclopropane-1,1-dicarboxamide]
100 to 300 nM	10 to 100 nM	100 to 300 nM	CNC(=O)c1cc2c(Oc3ccc(NC(=O)C4(C(=O)Nc5ccc(C(F)(F)F)cc5)CC4)cc3F)ccnc2cc1OC [Compound 273, 1-N′-[3-Fluoro-4-[7-methoxy-6-(methylcarbamoyl)quinolin-4-yl]oxyphenyl]-1-N-[4-(trifluoromethyl)phenyl]cyclopropane-1,1-dicarboxamide]
100 to 300 nM	> 300 nM	100 to 300 nM	COC(=O)Nc1ccc2c(Oc3ccc(NC(=O)C4(C(=O)Nc5ccc(F)cc5)CC4)cc3)ccnc2c1 [Compound 282, Methyl N-[4-[4-[[1-[(4-fluorophenyl)carbamoyl]cyclopropanecarbonyl]-amino]phenoxy]quinolin-7-yl]carbamate]
